Measurements reported in the supplement of paper PMC10307832.

How the values were obtained:
Assay in all cases: relative viability (nuclei count vs DMSO), 5 days (fraction); higher = more cells survive
Linsitinib + Alpelisib = compound: C[C@]1(O)C[C@@H](c2nc(-c3ccc4ccc(-c5ccccc5)nc4c3)c3c(N)nccn32)C1 [Linsitinib] + Cc1nc(NC(=O)N2CCC[C@H]2C(N)=O)sc1-c1ccnc(C(C)(C)C(F)(F)F)c1 [Alpelisib] (partner 2 µM)
Summary of the method: (§1)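 Nuclei were stained with Hoechst during a one-step fixation (final 0.05% Triton X-100, 1% formaldehyde, 1 ug/ml Hoechst) carried out 5 days after dosing, then counted on 4× images. The cells, lung cancer lines in 1536-well plates, had been dosed by pin tool the day after seeding with one drug alone or a fixed anchor-drug dose plus five library-drug doses (not always all listed) in √10 steps. Relative viability is the nuclei count in treated wells divided by that in vehicle wells, and each value is the median of duplicate plates.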

Linsitinib + Luminespib = compound: C[C@]1(O)C[C@@H](c2nc(-c3ccc4ccc(-c5ccccc5)nc4c3)c3c(N)nccn32)C1 [Linsitinib] + CCNC(=O)c1noc(-c2cc(C(C)C)c(O)cc2O)c1-c1ccc(CN2CCOCC2)cc1 [Luminespib] (partner 0.01 µM)
Summary of the method: as §1

Linsitinib + Bortezomib = compound: C[C@]1(O)C[C@@H](c2nc(-c3ccc4ccc(-c5ccccc5)nc4c3)c3c(N)nccn32)C1 [Linsitinib] + CC(C)C[C@H](NC(=O)[C@H](Cc1ccccc1)NC(=O)c1cnccn1)B(O)O [Bortezomib] (partner 0.002 µM)
Summary of the method: as §1

Ispinesib + Pemetrexed = compound: Cc1ccc(C(=O)N(CCCN)[C@@H](c2nc3cc(Cl)ccc3c(=O)n2Cc2ccccc2)C(C)C)cc1 [Ispinesib] + Nc1nc2[nH]cc(CCc3ccc(C(=O)N[C@@H](CCC(=O)O)C(=O)O)cc3)c2c(=O)[nH]1 [Pemetrexed] (partner 0.2 µM)
Summary of the method: as §1

Cell Line | relative viability (Linsitinib + Alpelisib; first compound 0.01 µM) | relative viability (Linsitinib + Alpelisib; first compound 0.03162 µM) | relative viability (Linsitinib + Alpelisib; first compound 0.1 µM) | relative viability (Linsitinib + Alpelisib; first compound 0.3162 µM) | relative viability (Linsitinib + Alpelisib; first compound 1 µM) | relative viability (Linsitinib + Luminespib; first compound 0.01 µM) | relative viability (Linsitinib + Luminespib; first compound 0.03162 µM) | relative viability (Linsitinib + Luminespib; first compound 0.1 µM) | relative viability (Linsitinib + Luminespib; first compound 0.3162 µM) | relative viability (Linsitinib + Luminespib; first compound 1 µM) | relative viability (Linsitinib + Bortezomib; first compound 0.01 µM) | relative viability (Linsitinib + Bortezomib; first compound 0.03162 µM) | relative viability (Linsitinib + Bortezomib; first compound 0.1 µM) | relative viability (Linsitinib + Bortezomib; first compound 0.3162 µM) | relative viability (Linsitinib + Bortezomib; first compound 1 µM) | relative viability (Ispinesib + Pemetrexed; first compound 0.001 µM) | relative viability (Ispinesib + Pemetrexed; first compound 0.003162 µM) | relative viability (Ispinesib + Pemetrexed; first compound 0.01 µM) | relative viability (Ispinesib + Pemetrexed; first compound 0.03162 µM) | relative viability (Ispinesib + Pemetrexed; first compound 0.1 µM)
SW 1573 | 0.677 | 0.831 | 0.761 | 0.655 | 0.654 | 0.22 | 0.359 | 0.238 | 0.129 | 0.238 | 1.18 | 1.19 | 1.1 | 0.797 | 0.811 | 0.799 | 0.791 | 0.78 | 0.279 | 0.152
NCI-H838 | 1 | 0.979 | 1.05 | 0.853 | 0.755 | 0.411 | 0.211 | 0.278 | – | 0.235 | 0.809 | 0.898 | 0.755 | 0.153 | 0.385 | 0.255 | 0.248 | 0.248 | 0.252 | 0.148
RERF-LC-KJ | 0.838 | 0.9 | 0.832 | 0.878 | 0.757 | 1.12 | 1.15 | 1.42 | 1.13 | 1.1 | 0.95 | 1.03 | 1.16 | 0.892 | 0.927 | 0.43 | 0.516 | 0.443 | 0.309 | 0.202
NCI-H441 | 0.863 | 0.839 | 0.804 | 0.539 | 0.629 | 0.296 | 0.327 | 0.211 | 0.245 | 0.281 | 0.398 | 0.428 | 0.455 | 0.586 | 0.413 | 0.245 | 0.286 | 0.299 | 0.2 | 0.171
PC-14 | 0.799 | 0.89 | 0.968 | 0.792 | 0.837 | 0.217 | 0.112 | 0.18 | 0.196 | 0.103 | 0.792 | 0.762 | 1.02 | 0.923 | 0.767 | 0.132 | 0.139 | 0.0661 | 0.0425 | 0.0577
NCI-H2009 | 1.17 | 1.17 | 1.2 | 1.03 | 1.13 | 1.01 | 1.01 | 1.06 | – | 1.06 | 1.01 | 0.926 | 1.07 | 0.185 | 0.898 | 1.13 | 1.06 | 1.03 | 0.936 | 0.44
NCI-H1437 | 0.977 | 0.955 | 0.986 | 0.901 | 0.903 | 1.1 | 1.12 | 1.22 | 1.1 | 1.19 | 0.561 | 0.507 | 0.545 | 0.302 | 0.38 | 0.31 | 0.334 | 0.329 | 0.347 | 0.238
NCI-H647 | 1.14 | 1.19 | 0.914 | – | 0.951 | 0.169 | 0.117 | 0.524 | – | 0.184 | 1.03 | 1.12 | 1.07 | – | 0.811 | 0.165 | 0.161 | 0.124 | 0.118 | 0.0916
NCI-H2087 | 1.06 | 1.2 | 1.02 | 0.853 | 0.815 | 0.167 | 0.169 | 0.132 | 0.15 | 0.142 | 0.947 | 0.97 | 0.945 | 0.594 | 0.641 | 0.667 | 0.715 | 0.66 | 0.635 | 0.149
BEN | 1.09 | 1.02 | 0.935 | 0.662 | 1.04 | 0.411 | 0.503 | 0.3 | – | 0.383 | 0.884 | 0.78 | 0.658 | 0.612 | 0.626 | 0.826 | 0.953 | 0.797 | 0.471 | 0.278
NCI-H3122 | 0.85 | 0.763 | 0.768 | 0.699 | 0.758 | 0.0915 | 0.1 | 0.0744 | 0.0902 | 0.0925 | 0.994 | 1.05 | 1.04 | 0.86 | 1.03 | 0.196 | 0.221 | 0.198 | 0.217 | 0.107
LCLC-97TM1 | 0.237 | 0.267 | 0.189 | 0.215 | 0.206 | 0.753 | 0.854 | 0.622 | 0.501 | 0.678 | 0.316 | 0.488 | 0.578 | 0.236 | 0.18 | 0.186 | 0.168 | 0.173 | 0.167 | 0.0653
NCI-H2228 | 0.594 | 0.746 | 0.723 | 0.493 | 0.586 | 0.138 | 0.179 | 0.214 | 0.145 | 0.139 | 1.05 | 0.89 | 0.787 | 0.72 | 0.765 | 0.375 | 0.293 | 0.424 | 0.303 | 0.201
COR-L23 | 0.725 | 0.907 | 0.769 | 0.623 | 0.55 | 0.678 | 0.48 | 0.783 | 0.555 | 0.583 | 0.861 | 1.03 | 1.08 | 0.896 | 1.06 | 0.197 | 0.195 | 0.183 | 0.158 | 0.147
EMC-BAC-2 | 0.7 | 0.689 | 0.748 | 0.613 | 0.667 | 1.07 | 1.2 | 1.26 | 1.01 | 0.95 | 1.08 | 1.05 | 1.01 | 0.628 | 0.917 | 0.455 | 0.418 | 0.405 | 0.352 | 0.327
A-427 | 1.11 | 1.02 | 1.05 | – | 0.997 | 0.757 | 0.954 | 1.01 | – | 0.993 | 0.974 | 1.02 | 0.987 | – | 0.869 | 1.04 | 1.13 | 1.1 | 0.48 | 0.243
NCI-H520 | 0.873 | 0.762 | 0.97 | – | 0.962 | 0.21 | 0.195 | 0.241 | – | 0.208 | 0.666 | 0.331 | 0.754 | – | 0.62 | 0.768 | 0.75 | 0.721 | 0.231 | 0.211
